Article PMC12345137 (mBio, 2025)
Read-outs that look alike come from different tables or passages of the source. Positions of bridges follow the written chain, without caps; N, C: chain ends. Residues, ends and D or L forms follow the SMILES beside them.

Key:
S. epidermidis agr-II = S. epidermidis agr-II (Staphylococcus epidermidis, UniProt Q8VSX5); assay: cell-based; assay type: cell-based; conditions: fluorescent reporter strain; peptides tested at 1000, 50, 2.5, 0.125 nM or in dose-response
In short: (§1)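 Reporter strains, with YFP (S. aureus) or sGFP (S. epidermidis) under agr P3, were diluted 1:100 from overnight TSB cultures with antibiotic and exposed to peptides for 22–24 h at 37°C, shaking. Background-subtracted fluorescence was normalized to OD600 and expressed relative to peptide-free control wells; IC50 came from variable-slope non-linear regression.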

S. epidermidis agr-III = S. epidermidis agr-III (Staphylococcus epidermidis, UniProt Q8VSX2); assay: cell-based; assay type: cell-based; conditions: fluorescent reporter strain; peptides tested at 1000, 50, 2.5, 0.125 nM or in dose-response
In short: as §1

S. aureus agr-IV = S. aureus agr-IV (Staphylococcus aureus, UniProt Q309Z2); assay: cell-based; assay type: cell-based; conditions: fluorescent reporter strain; peptides tested at 1000, 50, 2.5, 0.125 nM or in dose-response
In short: as §1

SA AgrC-III [1] = target: T1, SA AgrC-III (Staphylococcus aureus, UniProt O33590); conditions: 100 nM cognate AIP, ± SEM, determined previously, ref (1), cited from earlier work
SA AgrC-II [2] = target: T2, SA AgrC-II (Staphylococcus aureus, UniProt O33587); conditions: 100 nM cognate AIP; ± SEM; -b = no inhibition recorded at the highest AIP concentration tested; determined previously; ref (1); read-out: IC50, SA AgrC-II, b-lactamase assay; cited from earlier work
S. aureus agr-I = S. aureus agr-I (Staphylococcus aureus, UniProt O07911); assay: Fluorescence reporter assay for agr interference, screening and IC50 (AH1677, P3-YFP); assay type: cell-based; conditions: fluorescent reporter strain; peptides tested at 1000, 50, 2.5, 0.125 nM or in dose-response
Protocol: (§2) Peptides were evaluated for the ability to interfere with agr-mediated quorum sensing in S. aureus (AH1677, AH430, AH1747, and AH1872 for agr-I–IV, respectively) ([40]) using reporter strains expressing yellow fluorescent protein (YFP) upon agr activation. Interference with agr-mediated quorum sensing in S. epidermidis (AH3408, AH3623, and AH3409 for agr-I–III, respectively) ([45]), and S. lugdunensis (AH4031 for agr-I) ([37]) was evaluated using reporter strains expressing superfolder green fluorescent protein (sGFP) upon agr activation. Overnight cultures of the reporter strains were grown in TSB medium containing chloramphenicol (CAM, 10 μg/mL for S. aureus) or erythromycin (ERM, 10 μg/mL of S. epidermidis and S. lugdunensis) and diluted 1:100 in fresh TSB medium containing the same antibiotic. Assays were performed in sterile black 96-well plates with a clear bottom. […] DMSO stock solutions of peptides (1 mM) were diluted in TSB media and added (15 μL) in technical triplicate to the 96-well plate, followed by diluted bacterial overnight cultures (135 μL). […] Wells containing 150 μL TSB medium were used to measure background fluorescence. The 96-well plates were incubated in a humidified incubator at 37°C shaking at 1,000 rpm for 22–24 h and fluorescence (for GFP: excitation 479 nm, emission 520 nm; for YFP: excitation 500 nm, emission 541 nm; automatic gain), and OD600 values were subsequently measured using a plate reader. Background fluorescence was subtracted from all wells and further normalized to the corresponding OD600 value of the respective wells. The average fluorescence of control wells was used as a relative measure for 100% activation of the agr-circuit, and bar graphs were generated using GraphPad Prism 10.4 software. All assays were performed in at least a biological duplicate.
(§3) Overnight cultures of the reporter strains were grown in TSB medium containing chloramphenicol (CAM, 10 μg/mL for S. aureus) or erythromycin (ERM, 10 μg/mL of S. epidermidis and S. lugdunensis) and diluted 1:100 in fresh TSB medium containing the same antibiotic. Assays were performed in sterile black 96-well plates with clear bottoms. Peptide solutions (15 μL) in 1:5 serial dilutions from DMSO stock solutions (1 mM) in TSB medium were added to the 96-well plate in technical duplicate followed by diluted bacterial overnight cultures (135 μL). […] Wells containing 150 μL TSB medium were used to measure background fluorescence. The 96-well plates were incubated in a humidified incubator at 37°C shaking at 1,000 rpm for 22–24 h and fluorescence (for GFP: excitation 479 nm, emission 520 nm; for YFP: excitation 500 nm, emission 541 nm; automatic gain), and OD600 values were subsequently measured using a plate reader. Background fluorescence was subtracted from all wells and further normalized to the corresponding OD600 value of the respective wells. The average fluorescence of control wells was used as a relative measure for 100% activation of the agr-circuit. Relative agr activity was plotted to obtain IC50 values by non-linear regression with variable slope using GraphPad Prism 10.4 software. All assays were performed in biological triplicate.

SA AgrC-IV [3] = target: T3, SA AgrC-IV (Staphylococcus aureus, UniProt Q309Z2); conditions: ± SEM, determined previously, ref (1), cited from earlier work; for IC50: 100 nM cognate AIP, -b = no inhibition recorded at the highest AIP concentration tested, read-out: IC50, SA AgrC-IV, b-lactamase assay
S. epidermidis agr-I = S. epidermidis agr-I (Staphylococcus epidermidis, UniProt Q5HMY3); assay: cell-based; assay type: cell-based; conditions: fluorescent reporter strain; peptides tested at 1000, 50, 2.5, 0.125 nM or in dose-response
Protocol: as §2, §3

S. lugdunensis agr-I = S. lugdunensis agr-I (Staphylococcus lugdunensis, UniProt Q8VSW5); assay: cell-based; conditions: fluorescent reporter strain; peptides tested at 1000, 50, 2.5, 0.125 nM or in dose-response
In short: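 Fluorescence of the agr-driven P3 reporter, read after 22–24 h of growth with peptide at 37°C, was corrected for medium background and divided by OD600. Activity is given relative to wells without peptide, and IC50 values were fitted by non-linear regression with variable slope.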

S. aureus agr-II = S. aureus agr-II (Staphylococcus aureus, UniProt O33587); assay: cell-based; conditions: fluorescent reporter strain; peptides tested at 1000, 50, 2.5, 0.125 nM or in dose-response
In short: as §1

S. aureus agr-III = S. aureus agr-III (Staphylococcus aureus, UniProt O33590); assay: cell-based; conditions: fluorescent reporter strain; peptides tested at 1000, 50, 2.5, 0.125 nM or in dose-response
In short: as §1

S. aureus (SA) agr-II [4] = conditions: fluorescence; ref (5); cited from earlier work
S. aureus (SA) agr-IV = conditions: b-lactamase, cited from earlier work
[5] = tested on: S. epidermidis (SE) agr-I; conditions: fluorescence; ref (11); cited from earlier work
S. aureus (SA) agr-III [6] = conditions: b-lactamase, cited from earlier work
S. aureus (SA) agr-II [7] = tested on: S. aureus (SA) agr-II; set-up: method as in ref (5) (a number printed in a supplementary file, which may have a reference list of its own: not looked up in the article's list); conditions: hemolysis; ref (5); cited from earlier work
S. aureus (SA) agr-I = conditions: b-lactamase, cited from earlier work
[8] = tested on: S. epidermidis (SE) agr-I; set-up: method as in ref (9) (a number printed in a supplementary file, which may have a reference list of its own: not looked up in the article's list); conditions: HPLC d-toxin, ref (9); cited from earlier work
S. aureus (SA) agr-II [9] = conditions: b-lactamase, cited from earlier work
S. aureus (SA) agr-III [10] = conditions: fluorescence; ref (5); cited from earlier work
S. aureus (SA) agr-III [11] = tested on: S. aureus (SA) agr-III; set-up: method as in ref (5) (a number printed in a supplementary file, which may have a reference list of its own: not looked up in the article's list); conditions: hemolysis; ref (5); cited from earlier work
SA AgrC-I [12] = target: T4, SA AgrC-I (Staphylococcus aureus, UniProt O07911); conditions: ± SEM; determined previously; ref (1); read-out: EC50, SA AgrC-I, b-lactamase assay; cited from earlier work
SA AgrC-IV [13] = target: T3, SA AgrC-IV; assay: β-Lactamase assay, reporter strain RN10829 (P2-agrA:P3-blaZ) with pagrC-IV; assay type: cell-based; conditions: 100 nM cognate AIP; ± SEM; -b = no inhibition recorded at the highest AIP concentration tested; -a = only partial inhibition observed; this study (curves in Fig. S22)
In short: (§4)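 S. aureus RN10829 P2-agrA:P3-blaZ reporter carrying a plasmid for the matching wild-type AgrC, grown in TSB to OD600 0.35–0.40. Cells met peptides (10 μM–10 pM) plus cognate AIP at 100 nM for 1 h at 37°C, then nitrocefin (33.3 μg/mL) turnover was read at OD486 for 10 min; IC50 from linear rates.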

SA AgrC-I [14] = target: T4, SA AgrC-I; assay: β-Lactamase assay, reporter strain RN10829 (P2-agrA:P3-blaZ) with pagrC-I; assay type: cell-based
From the text: The β-lactamase reporter strain RN10829 (P2-agrA:P3-blaZ) ([62]), with pagrC-I ([63]), pagrC-II, pagrC-III, or pagrC-IV ([11]), substituting the native agr locus with a chromosomal integration of P2-agrA and P3-blaZ and a plasmid from which a wild-type variant of the corresponding AgrC is expressed, was used to assess inhibition and activation of the AgrC receptor via β-lactamase activity in response to varying concentrations of the QS modulating peptides. Overnight cultures of the reporter strains in TSB medium were diluted 1:250 in fresh TSB medium and grown to OD600 = 0.35–0.40 (early exponential phase) at 37°C. Peptide solutions (10 μL) in 1:10 serial dilutions from DMSO stock solutions (1 mM) in TSB medium (final concentrations = 10 μM–10 pM) were added to each well of a clear 96-well plate as well as solutions (10 μL) of cognate AIP (final concentration = 100 nM) in TSB medium followed by 80 μL of bacterial cells. […] The 96-well plates were incubated at 37°C shaking at 200 rpm for 1 h and immediately frozen down at −80°C to minimize growth during nitrocefin treatment. Next, the 96-well plates were thawed, and OD600 values were determined using a plate reader followed by the addition of 50 μL of nitrocefin solution to the wells (final concentration = 33.3 μg/mL). β-Lactamase activity was monitored at OD486 every 20 s for 10 min at 37°C using a plate-reader. Linear nitrocefin conversion rates were plotted to obtain IC50 values by non-linear regression with variable slope using GraphPad Prism 10.4 software. Assays were performed at least as duplicate determinations in biological triplicate.

SA AgrC-II [15] = target: T2, SA AgrC-II; assay: β-Lactamase assay, reporter strain RN10829 (P2-agrA:P3-blaZ) with pagrC-II; assay type: cell-based
In short: as §4

SA AgrC-III [16] = target: T1, SA AgrC-III; assay: β-Lactamase assay, reporter strain RN10829 (P2-agrA:P3-blaZ) with pagrC-III; assay type: cell-based
In short: as §4

[17] = -b = no inhibition recorded at the highest AIP concentration tested, read-out: IC50, SA AgrC-III, b-lactamase assay

T1 sequence (O33590 entry or part of it): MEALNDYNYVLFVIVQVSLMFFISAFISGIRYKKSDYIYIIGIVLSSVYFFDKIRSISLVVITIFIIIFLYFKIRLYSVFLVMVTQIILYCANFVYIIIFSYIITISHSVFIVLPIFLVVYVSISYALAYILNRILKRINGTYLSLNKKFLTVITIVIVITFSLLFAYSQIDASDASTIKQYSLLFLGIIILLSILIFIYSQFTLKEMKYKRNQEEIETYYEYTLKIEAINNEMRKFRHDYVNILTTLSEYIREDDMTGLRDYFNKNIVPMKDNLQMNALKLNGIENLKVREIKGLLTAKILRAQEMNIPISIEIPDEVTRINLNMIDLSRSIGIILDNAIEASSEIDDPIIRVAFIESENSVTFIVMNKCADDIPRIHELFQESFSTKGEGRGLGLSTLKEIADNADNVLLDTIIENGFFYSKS
T2 sequence (O33587 entry or part of it): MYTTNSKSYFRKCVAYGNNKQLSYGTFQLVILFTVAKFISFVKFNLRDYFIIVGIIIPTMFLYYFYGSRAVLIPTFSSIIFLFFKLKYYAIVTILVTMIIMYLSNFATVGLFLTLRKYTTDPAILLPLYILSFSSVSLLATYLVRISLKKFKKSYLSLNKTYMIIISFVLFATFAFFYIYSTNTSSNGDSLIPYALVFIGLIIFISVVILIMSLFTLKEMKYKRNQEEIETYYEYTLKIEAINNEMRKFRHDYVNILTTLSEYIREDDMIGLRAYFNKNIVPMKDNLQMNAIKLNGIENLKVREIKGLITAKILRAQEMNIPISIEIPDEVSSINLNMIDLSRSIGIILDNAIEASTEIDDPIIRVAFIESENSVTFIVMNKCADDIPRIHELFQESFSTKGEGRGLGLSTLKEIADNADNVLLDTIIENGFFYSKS
T3 sequence (Q309Z2 entry or part of it): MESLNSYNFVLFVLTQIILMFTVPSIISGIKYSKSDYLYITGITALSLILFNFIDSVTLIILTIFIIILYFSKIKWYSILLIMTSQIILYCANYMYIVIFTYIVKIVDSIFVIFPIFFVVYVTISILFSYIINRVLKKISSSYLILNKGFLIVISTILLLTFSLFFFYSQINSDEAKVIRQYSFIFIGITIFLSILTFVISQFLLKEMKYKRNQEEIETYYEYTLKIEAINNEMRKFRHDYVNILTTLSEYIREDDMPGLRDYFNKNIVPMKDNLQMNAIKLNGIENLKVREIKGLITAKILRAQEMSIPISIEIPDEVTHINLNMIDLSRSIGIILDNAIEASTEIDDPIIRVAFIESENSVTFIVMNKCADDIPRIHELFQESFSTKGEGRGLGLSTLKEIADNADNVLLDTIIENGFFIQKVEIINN
S. aureus agr-III, sequence (O33590 entry or part of it): as the sequence (O33590 entry or part of it) above
S. epidermidis agr-III, sequence (Q8VSX2 entry or part of it): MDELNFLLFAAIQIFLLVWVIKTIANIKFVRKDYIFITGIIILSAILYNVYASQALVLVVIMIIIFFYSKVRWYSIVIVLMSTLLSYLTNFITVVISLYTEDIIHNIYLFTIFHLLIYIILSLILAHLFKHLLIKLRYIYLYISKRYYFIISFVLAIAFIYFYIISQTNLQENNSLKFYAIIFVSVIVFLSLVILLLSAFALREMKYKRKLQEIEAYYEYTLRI
S. aureus agr-II, sequence (O33587 entry or part of it): as the sequence (O33587 entry or part of it) above
S. epidermidis agr-II, sequence (Q8VSX5 entry or part of it): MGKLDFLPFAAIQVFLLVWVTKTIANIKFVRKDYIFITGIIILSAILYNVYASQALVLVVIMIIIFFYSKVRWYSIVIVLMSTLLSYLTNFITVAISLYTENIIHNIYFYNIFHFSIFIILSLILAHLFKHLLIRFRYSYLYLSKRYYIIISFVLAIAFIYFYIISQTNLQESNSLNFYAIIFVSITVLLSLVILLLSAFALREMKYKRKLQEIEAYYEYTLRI
S. epidermidis agr-I, sequence (Q5HMY3 entry or part of it): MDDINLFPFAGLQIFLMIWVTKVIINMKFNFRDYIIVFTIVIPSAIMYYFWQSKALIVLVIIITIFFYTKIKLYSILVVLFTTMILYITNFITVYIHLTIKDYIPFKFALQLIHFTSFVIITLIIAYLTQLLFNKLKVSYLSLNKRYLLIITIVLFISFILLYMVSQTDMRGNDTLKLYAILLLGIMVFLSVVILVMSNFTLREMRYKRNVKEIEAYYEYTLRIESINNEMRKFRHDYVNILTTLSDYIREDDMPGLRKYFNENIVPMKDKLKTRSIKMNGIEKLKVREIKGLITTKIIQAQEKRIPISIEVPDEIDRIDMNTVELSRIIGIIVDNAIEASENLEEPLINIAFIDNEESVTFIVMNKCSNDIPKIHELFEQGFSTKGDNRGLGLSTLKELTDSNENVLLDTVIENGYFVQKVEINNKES
S. lugdunensis agr-I, sequence (Q8VSW5 entry or part of it): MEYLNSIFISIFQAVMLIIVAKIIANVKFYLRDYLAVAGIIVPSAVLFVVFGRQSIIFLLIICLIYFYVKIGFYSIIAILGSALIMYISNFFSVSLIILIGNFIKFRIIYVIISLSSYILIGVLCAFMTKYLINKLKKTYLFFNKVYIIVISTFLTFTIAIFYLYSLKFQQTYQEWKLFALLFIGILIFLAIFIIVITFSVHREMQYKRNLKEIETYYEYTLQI
S. aureus agr-IV, sequence (Q309Z2 entry or part of it): as the sequence (Q309Z2 entry or part of it) above
S. aureus agr-I, sequence (O07911 entry or part of it): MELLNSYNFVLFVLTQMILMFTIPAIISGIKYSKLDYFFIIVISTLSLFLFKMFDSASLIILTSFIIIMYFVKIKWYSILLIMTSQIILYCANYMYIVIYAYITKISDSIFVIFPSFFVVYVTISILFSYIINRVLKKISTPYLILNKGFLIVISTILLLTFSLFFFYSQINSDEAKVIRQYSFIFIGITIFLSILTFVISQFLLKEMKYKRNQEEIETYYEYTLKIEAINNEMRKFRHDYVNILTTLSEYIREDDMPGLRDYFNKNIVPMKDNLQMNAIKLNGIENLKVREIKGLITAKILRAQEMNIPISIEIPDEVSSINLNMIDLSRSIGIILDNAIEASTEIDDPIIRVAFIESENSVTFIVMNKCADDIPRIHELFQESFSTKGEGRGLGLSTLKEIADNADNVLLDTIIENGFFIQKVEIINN
T4 sequence (O07911 entry or part of it): as above

Compound	QS interaction in words (inhibition / activation), S. epidermidis agr-II (S. epidermidis agr-II)	QS interaction in words (inhibition / activation), S. epidermidis agr-III (S. epidermidis agr-III)	QS interaction in words (inhibition / activation), S. aureus agr-IV (S. aureus agr-IV)	IC50 (SA AgrC-III [1]; [17]) [nM]	IC50 (SA AgrC-II [2]) [nM]	QS interaction in words (inhibition / activation), S. aureus agr-I (S. aureus agr-I)	IC50 (SA AgrC-IV [3]) [nM]	QS interaction in words (inhibition / activation), S. epidermidis agr-I (S. epidermidis agr-I)	QS interaction in words (inhibition / activation), S. lugdunensis agr-I (S. lugdunensis agr-I)	QS interaction in words (inhibition / activation), S. aureus agr-II (S. aureus agr-II)	QS interaction in words (inhibition / activation), S. aureus agr-III (S. aureus agr-III)	also measured
S. hyicus AIP-I [compound 26]	potently inhibited	potently inhibited	potently inhibited	4 ± 0.8	350 ± 90	potently inhibited	180 ± 33	potently inhibited	only weakly inhibited	potently inhibited	potently inhibited	
S. aureus AIP-IV [compound 4]					47 ± 9							IC50 (S. aureus (SA) agr-II [4]): 0.37 nM; IC50 (SA AgrC-III [1]; only partial inhibition observed, read-out: IC50, SA AgrC-III, b-lactamase assay, only partial inhibition observed (footnote a)): 9.8 ± 0.2 nM; EC50 (S. aureus (SA) agr-IV; ref (4)): 13 nM; EC50 (S. aureus (SA) agr-IV; ref (7)): 7.9 nM; IC50 [5]: > 1000 nM; EC50 (SA AgrC-IV [3]; read-out: EC50, SA AgrC-IV, b-lactamase assay): 2.6 ± 0.2 nM; IC50 (S. aureus (SA) agr-III [6]; ref (4)): 1 nM; IC50 (S. aureus (SA) agr-II [7]): 0.09 nM; EC50 (S. aureus (SA) agr-I; ref (4)): 62 nM; inhibition at 1000 nM, SE agr-I [8]: 40%; IC50 (S. aureus (SA) agr-II [9]; ref (4)): 4 nM; IC50 (S. aureus (SA) agr-III [10]): 0.46 nM; IC50 (S. aureus (SA) agr-III [11]): 1.49 nM; EC50 (SA AgrC-I [12]): 59 ± 2 nM
S. chromogenes AIP-I [compound 27]	potently inhibited	potently inhibited	potently inhibited	60 ± 13	200 ± 13	potently inhibited	350 ± 85	potently inhibited	only weakly inhibited	potently inhibited	potently inhibited	
CC[C@H](C)[C@H](NC(=O)[C@@H](N)CCCNC(=N)N)C(=O)N1CCC[C@H]1C(=O)N[C@H](C(=O)N[C@H]1COC(=O)[C@H](Cc2ccccc2)NC(=O)[C@H](Cc2ccccc2)NC(=O)CNC(=O)[C@H]([C@@H](C)O)NC1=O)[C@@H](C)O [compound 31, S. intermedius AIP-I] (H-RIPTSTGFF; ester 5-C)												inhibition from supernatant, SA agr-IV (S. aureus (SA) agr-IV; from supernatant, ref (16)): 10–60%; IC50, SA AgrC-IV, b-lactamase assay (SA AgrC-IV [13]): -b; inhibition from supernatant, SA agr-III (S. aureus (SA) agr-III [6]; from supernatant, ref (16)): 60–100%; IC50 (SA AgrC-I [14]): 87 ± 20 nM; IC50 (SA AgrC-II [15]): > 1000 nM; inhibition from supernatant, SA agr-I (S. aureus (SA) agr-I; from supernatant, ref (16)): 80–100%; IC50 (SA AgrC-III [16]): 104 ± 20 nM; inhibition from supernatant, SA agr-II (S. aureus (SA) agr-II [9]; from supernatant, ref (16)): 40–90%
